Experiment [1] relates to formalin-induced pain. As to conditions: FIG. 10A.
Description: The subject animal is a mouse.
The following experimental results are assessment results obtained by inputting an activity value of an individual cell into a neural network constructed using average calcium activity values.
FIG. 10 is divided into baseline (B), early (E), inter (I), late (L), and recovery (R) sections according to time.
In experiment [2] the test system is capsaicin-induced pain. The experiment can be described thus: capsaicin-induced pain assessed by deep learning model from images of cortical nerve cells. In kind it is in vivo, mouse. As to conditions: capsaicin pain state compared to before administration and after pain has subsided; model trained with formalin pain data; FIG. 11A. An excerpt:
FIG. 11 is an analysis result for capsaicin-induced pain. FIG. 11 is a result of applying a deep learning model trained with formalin pain data to other pain causes. […] FIG. 11B is an ROC curve showing pain classification performance for FIG. 11A. It can be seen from the ROC curve that the AUC value is 0.93, which is a reliable level.

The subject of experiment [3] is cerebellar Bergmann glial cells. Description: pain assessment using the activity of cerebellar Bergmann glial cells. In kind it is in vivo. The settings on record: Bergmann glial cell activity image, cerebellar region; FIG. 13B. From the text:
The researcher analyzed pain assessments based on areas of a brain other than cortical nerve cells. Pain assessment results using cerebellar Bergmann glial cells will be described below. Bergmann glial cells are a type of glial cell as described above. In this case, the deep learning model must be trained in advance with an image showing the activity of Bergmann glial cells of the cerebellum (e.g., a two-photon microscope image of a cerebellar region). The training data may be a two-photon microscope image of a cerebellar region and pain information (normal state or pain state) at the time of generating a corresponding image. The experimental results below are the results of the analysis device inputting individual cell activity values into the average value-based neural network model.
FIG. 13 is a result of assessing pain using the activity of cerebellar Bergmann glial cells. […] The assessment time for capsaicin was a total of 30 minutes, and the activity was assessed for 10 minutes at the time of administration and was further assessed for 10 minutes before and after administration. […] The reference state (Vehicle) is a state in which capsaicin is not injected. Referring to FIG. 13B, it can be seen that the pain assessment result is distinguished as a pain state for about 10 minutes after capsaicin injection. […]

The text below walks through data of patent publication US12257070B2, “Pain assessment method based on deep learning model and analysis device” (NEUROGRIN INC., priority 2019, dated 2025).

For `C=O` [Formalin, formalin], the “predicted pain probability (formalin pain)” value in experiment [1] (formalin 5% or 1%, sections baseline, early, inter, late, recovery) was “appears only in E (early phase)”.

For `COc1cc(CNC(=O)CCCC/C=C/C(C)C)ccc1O` [capsaicin], the predicted pain probability entry in experiment [2] was “higher”. Further, the “time distinguished as a pain state after capsaicin injection” value in experiment [3] is listed as “about 10 minutes”.

With `CCN(CC)CC(=O)Nc1c(C)cccc1C` [lidocaine], the predicted pain probability result in experiment [1] (analgesic given in addition to a high concentration (5%) of formalin) is listed as “little pain”.
